Converted amounts (≈) assume the structure as drawn.
What was measured:
Format in all cases: functional
[1] = tested on: Staphylococcus aureus; test: Antimicrobial activity against Staphylococcus aureus ATCC 29213 by NCCLS M7-A6 method
[2] = tested on: Staphylococcus aureus; test: Antimicrobial activity against methicillin-resistant Staphylococcus aureus MC1 by NCCLS M7-A6 method
[3] = tested on: Bacillus cereus; test: Antimicrobial activity against Bacillus cereus by NCCLS M7-A6 method
[4] = tested on: Escherichia coli; test: Antimicrobial activity against Escherichia coli by NCCLS M7-A6 method
[5] = tested on: Mycolicibacterium smegmatis; test: Antimicrobial activity against Mycobacterium smegmatis by NCCLS M7-A6 method
[6] = tested on: Corynebacterium xerosis; test: Antimicrobial activity against Corynebacterium xerosis by NCCLS M7-A6 method
[7] = tested on: Corynebacterium diphtheriae; test: Antimicrobial activity against Corynebacterium diphtheriae Tox by NCCLS M7-A6 method
[8] = tested on: Corynebacterium pseudodiphtheriticum; test: Antimicrobial activity against Corynebacterium pseudodiphtheriticum by NCCLS M7-A6 method
[9] = tested on: Staphylococcus aureus; test: Antimicrobial activity against Staphylococcus aureus ATCC 25923 by NCCLS M7-A6 method
[10] = tested on: Staphylococcus aureus; test: Antimicrobial activity against methicillin-resistant Staphylococcus aureus MC2 by NCCLS M7-A6 method
[11] = tested on: Enterococcus faecium; test: Antimicrobial activity against vancomycin-resistant Enterococcus faecium 1 by NCCLS M7-A6 method
[12] = tested on: Enterococcus faecalis; test: Antimicrobial activity against Enterococcus faecalis ATCC 29212 by NCCLS M7-A6 method
[13] = tested on: Listeria monocytogenes; test: Antimicrobial activity against Listeria monocytogenes by NCCLS M7-A6 method
[14] = tested on: Streptococcus mitis; test: Antimicrobial activity against Streptococcus mitis by NCCLS M7-A6 method
[15] = tested on: Streptococcus agalactiae; test: Antimicrobial activity against Streptococcus agalactiae by NCCLS M7-A6 method
[16] = tested on: Streptococcus pyogenes; test: Antimicrobial activity against Streptococcus pyogenes by NCCLS M7-A6 method
[17] = tested on: Streptococcus pneumoniae; test: Antimicrobial activity against Streptococcus pneumoniae ATCC 49619 by NCCLS M7-A6 method
[18] = tested on: Priestia megaterium; test: Antimicrobial activity against Bacillus megaterium by NCCLS M7-A6 method
[19] = tested on: Bacillus subtilis; test: Antimicrobial activity against Bacillus subtilis by NCCLS M7-A6 method
[20] = tested on: Bacillus anthracis; test: Antimicrobial activity against Bacillus anthracis Sterne by NCCLS M7-A6 method
[21] = tested on: Pseudomonas aeruginosa; test: Antimicrobial activity against Pseudomonas aeruginosa by NCCLS M7-A6 method
[22] = tested on: Enterococcus faecium; test: Antimicrobial activity against vancomycin-resistant Enterococcus faecium 14 by NCCLS M7-A6 method

Row | Compound | MIC [1] [µg/mL] | MIC [2] [µg/mL] | MIC [3] [µg/mL] | MIC [4] [µg/mL] | MIC [5] [µg/mL] | other results
1 | COc1cc(/C=C/Oc2ccc(C)cc2)cc(OC)c1 | > 512 | > 512 | > 512 | > 512 | > 512 | 
2 | COc1cc(/C=C/c2ccccc2)cc(OC)c1 [3,5-O-DIMETHYLPINOSYLVIN] | > 512 | > 512 | > 512 | > 512 | > 512 | 
3 | COc1cc(OC)cc(O/C=C/c2ccccc2)c1 | > 512 | > 512 | > 512 | > 512 | > 512 | 
4 | COc1cc(O)cc(O/C=C/c2ccccc2)c1 | 32 (≈ 132 µM) | 32 (≈ 132 µM) | 64 (≈ 264 µM) | > 512 | 128 (≈ 528 µM) | 
5 | COc1cc(/C=C/c2cccs2)cc(OC)c1 | > 512 | > 512 | > 512 | > 512 | > 512 | 
6 | COc1cc(O)cc(/C=C/Oc2ccc(C)cc2)c1 | 16 (≈ 62.4 µM) | 32 (≈ 125 µM) | 64 (≈ 250 µM) | > 512 | > 128 | 
7 | COc1ccc(O/C=C/c2cc(O)cc(OC)c2)cc1 | 16 (≈ 58.8 µM) | 64 (≈ 235 µM) | 64 (≈ 235 µM) | > 512 | 128 (≈ 470 µM) | 
8 | COc1cc(O)cc(/C=C/Oc2ccccc2C)c1 | 16 (≈ 62.4 µM) | 32 (≈ 125 µM) | 64 (≈ 250 µM) | > 512 | > 128 | 
9 | COc1cc(O)cc(/C=C/c2ccsc2)c1 | 32 (≈ 138 µM) | 32 (≈ 138 µM) | 32 (≈ 138 µM) | > 512 | 64 (≈ 276 µM) | 
10 | COc1cc(/C=C/Oc2cccc(OC)c2)cc(OC)c1 | > 512 | > 512 | > 512 | > 512 | > 512 | 
11 | COc1ccc(O/C=C/c2cc(OC)cc(OC)c2)cc1 | > 512 | > 512 | > 512 | > 512 | > 512 | 
12 | COc1cc(O)cc(/C=C/c2ccccc2)c1 [PINOSYLVIN METHYL ETHER] | 32 (≈ 141 µM) | 32 (≈ 141 µM) | 16 (≈ 70.7 µM) | > 512 | 64 (≈ 283 µM) | MIC [6]: 16 µg/mL (≈ 70.7 µM); MIC [7]: 32 µg/mL (≈ 141 µM); MIC [8]: 16 µg/mL (≈ 70.7 µM); MIC [9]: 32 µg/mL (≈ 141 µM); MIC [10]: 32 µg/mL (≈ 141 µM); MIC [11]: 16 µg/mL (≈ 70.7 µM); MIC [12]: 16 µg/mL (≈ 70.7 µM); MIC [13]: 32 µg/mL (≈ 141 µM); MIC [14]: 64 µg/mL (≈ 283 µM); MIC [15]: 32 µg/mL (≈ 141 µM); MIC [16]: 16 µg/mL (≈ 70.7 µM); MIC [17]: 8 µg/mL (≈ 35.4 µM); MIC [18]: 64 µg/mL (≈ 283 µM); MIC [19]: 16 µg/mL (≈ 70.7 µM); MIC [20]: 8 µg/mL (≈ 35.4 µM); MIC [21]: > 128 µg/mL; MIC [22]: 16 µg/mL (≈ 70.7 µM)
13 | COc1cc(O)cc(/C=C/Oc2cccc(OC)c2)c1 | 16 (≈ 58.8 µM) | 64 (≈ 235 µM) | 64 (≈ 235 µM) | > 512 | 128 (≈ 470 µM) | 
14 | COc1cc(O)cc(/C=C/Oc2cccc(C)c2)c1 | 16 (≈ 62.4 µM) | 32 (≈ 125 µM) | 32 (≈ 125 µM) | > 512 | 64 (≈ 250 µM) | 
15 | COc1cc(/C=C/Oc2cccc(C)c2)cc(OC)c1 | > 512 | > 512 | > 512 | > 512 | > 512 | 
16 | COc1cc(O)cc(/C=C/Oc2ccccc2)c1 | 32 (≈ 132 µM) | 64 (≈ 264 µM) | 32 (≈ 132 µM) | > 512 | 128 (≈ 528 µM) | 
17 | COc1cc(/C=C/Oc2ccccc2)cc(OC)c1 | > 512 | > 512 | > 512 | > 512 | > 512 | 
18 | COc1cc(O)cc(/C=C/c2cccs2)c1 | 16 (≈ 68.9 µM) | 32 (≈ 138 µM) | 32 (≈ 138 µM) | > 512 | 128 (≈ 551 µM) | 
19 | COc1cc(/C=C/Sc2ccccc2)cc(OC)c1 | > 512 | > 512 | > 512 | > 512 | > 512 | 
20 | COc1cc(O)cc(/C=C/Sc2ccccc2)c1 | 16 (≈ 61.9 µM) | 32 (≈ 124 µM) | 16 (≈ 61.9 µM) | > 512 | 128 (≈ 495 µM) | 
21 | COc1cc(/C=C/Oc2ccccc2C)cc(OC)c1 | > 512 | > 512 | > 512 | > 512 | > 512 | 

From ChEMBL document CHEMBL1143441, “New classes of Gram-positive selective antibacterials: inhibitors of MRSA and surrogates of the causative agents of anthrax and tuberculosis” (2008)
